{"source": "patent US12677847B2", "about": "“Methods and formulations for reducing bovine emissions” (Elanco US Inc., priority 2015, dated 2026)", "key": {"cattle [1]": {"test_system": "cattle", "experiment": "Reduction of ammonia gas emissions from cattle fed lubabegron for 91 days in cattle pen enclosures", "format": "in vivo", "source_text": "Prepare lubabegron (L) as 4.5 g/lb of Type A Medicated Article. In a facility having at least eight cattle pen enclosures (CPEs), test two cycles of cattle, each cycle representing all dose (0, 1.25, 5, and 20 g/ton) and gender (steer and heifer) combinations. For the purpose of this example, a cycle refers to a group of 112 animals housed concurrently. Within each cycle, there are 2 cohorts of animals (56 animals per cohort). A cohort refers to a group of same gender animals representing each of the 4 doses. Up to 4 cycles are used to provide a total of 4 cohorts per gender.\nUpon receipt of the cattle, allocate the cattle to CPEs to acclimate for 7 days. After the acclimation phase, for 91 days orally treat via feed one fourth of the cattle allocated to CPEs L 0 g/ton/day; one fourth 1.25 g/ton/day; 5 g/ton/day; and 20 g/ton/day (100% dry matter basis). Provide feed and water ad libitum. On day 91, collect body weight and load cattle for transport to the slaughter facility. On day 92, slaughter the cattle and evaluate the carcass. During the study, monitor and collect ammonia gas emissions data. Measure the ammonia emissions over the treatment period and normalize by body weight (BW) for the period (Days 0-7, 0-14, 0-28, 0-56, and 0-91) and hot carcass weight (HCW) (Days 0-91) (g of gas/animal; g of gas/lb of live BW; g of gas/lb of HCW). Using the process described above, the following results are achieved."}, "cattle [2]": {"test_system": "cattle", "experiment": "Reduction of carbon dioxide gas emissions from cattle fed lubabegron for 14 days in individual chambers", "format": "in vivo", "source_text": "Prepare lubabegron (L) as 4.5 g/lb of Type A Medicated Article. In an appropriate facility having cattle chambers or rooms for individual animals (chambers), test ten cycles of twelve cattle each, each cycle representing all dose (0, 1.25, 5, and 20 g/ton) with a mixture of genders (steer and heifer).\nUpon receipt of the cattle, allocate the cattle to chambers to acclimate for 7 days. After the acclimation phase, for 14 days orally treat via feed one fourth of the cattle allocated to chambers L 0 g/ton/day; one fourth 1.25 g/ton/day; 5 g/ton/day; and 20 g/ton/day (100% dry matter basis). Provide feed and water ad libitum. On day 14, collect body weight and load cattle for transport to the slaughter facility. On day 15, slaughter the cattle and evaluate the carcass. During the study, monitor and collect carbon dioxide gas emissions data. […] Using the process described above, the following results are achieved."}}, "data": [{"smiles": "CC(C)(Cc1ccc(Oc2ncccc2C#N)cc1)NC[C@H](O)COc1ccccc1-c1cccs1", "note": "[lubabegron]", "values": [{"measurement": "Reduction, as compared to control, g of NH3 gas/animal", "setting": "cattle [1]; 1.25 g/ton in feed, Day 0-7", "result": "5% (5%)"}, {"measurement": "Reduction, as compared to control, g of NH3 gas/lb of live BW", "setting": "cattle [1]; 1.25 g/ton in feed, Day 0-7", "result": "5% (5%)"}, {"measurement": "Reduction, as compared to control, g of NH3 gas/animal", "setting": "cattle [1]; 1.25 g/ton in feed, Day 0-14", "result": 12, "unit": "%"}, {"measurement": "Reduction, as compared to control, g of NH3 gas/lb of live BW", "setting": "cattle [1]; 1.25 g/ton in feed, Day 0-14", "result": 14, "unit": "%"}, {"measurement": "Reduction, as compared to control, g of NH3 gas/animal", "setting": "cattle [1]; 1.25 g/ton in feed, Day 0-28", "result": 15, "unit": "%"}, {"measurement": "Reduction, as compared to control, g of NH3 gas/lb of live BW", "setting": "cattle [1]; 1.25 g/ton in feed, Day 0-28", "result": 16, "unit": "%"}, {"measurement": "Reduction, as compared to control, g of NH3 gas/animal", "setting": "cattle [1]; 1.25 g/ton in feed, Day 0-56", "result": 11, "unit": "%"}, {"measurement": "Reduction, as compared to control, g of NH3 gas/lb of live BW", "setting": "cattle [1]; 1.25 g/ton in feed, Day 0-56", "result": 13, "unit": "%"}, {"measurement": "Reduction, as compared to control, g of NH3 gas/animal", "setting": "cattle [1]; 1.25 g/ton in feed, Day 0-91", "result": 9, "unit": "%"}, {"measurement": "Reduction, as compared to control, g of NH3 gas/lb of HCW", "setting": "cattle [1]; 1.25 g/ton in feed, Day 0-91", "result": 13, "unit": "%"}, {"measurement": "Reduction, as compared to control, g of NH3 gas/lb of live BW", "setting": "cattle [1]; 1.25 g/ton in feed, Day 0-91", "result": 11, "unit": "%"}, {"measurement": "Reduction, as compared to control, g of NH3 gas/animal", "setting": "cattle [1]; 5 g/ton in feed, Day 0-7", "result": 7, "unit": "%"}, {"measurement": "Reduction, as compared to control, g of NH3 gas/lb of live BW", "setting": "cattle [1]; 5 g/ton in feed, Day 0-7", "result": 8, "unit": "%"}, {"measurement": "Reduction, as compared to control, g of NH3 gas/animal", "setting": "cattle [1]; 5 g/ton in feed, Day 0-14", "result": 16, "unit": "%"}, {"measurement": "Reduction, as compared to control, g of NH3 gas/lb of live BW", "setting": "cattle [1]; 5 g/ton in feed, Day 0-14", "result": 17, "unit": "%"}, {"measurement": "Reduction, as compared to control, g of NH3 gas/animal", "setting": "cattle [1]; 5 g/ton in feed, Day 0-28", "result": 20, "unit": "%"}, {"measurement": "Reduction, as compared to control, g of NH3 gas/lb of live BW", "setting": "cattle [1]; 5 g/ton in feed, Day 0-28", "result": 21, "unit": "%"}, {"measurement": "Reduction, as compared to control, g of NH3 gas/animal", "setting": "cattle [1]; 5 g/ton in feed, Day 0-56", "result": 16, "unit": "%"}, {"measurement": "Reduction, as compared to control, g of NH3 gas/lb of live BW", "setting": "cattle [1]; 5 g/ton in feed, Day 0-56", "result": 18, "unit": "%"}, {"measurement": "Reduction, as compared to control, g of NH3 gas/animal", "setting": "cattle [1]; 5 g/ton in feed, Day 0-91", "result": 12, "unit": "%"}, {"measurement": "Reduction, as compared to control, g of NH3 gas/lb of HCW", "setting": "cattle [1]; 5 g/ton in feed, Day 0-91", "result": 16, "unit": "%"}, {"measurement": "Reduction, as compared to control, g of NH3 gas/lb of live BW", "setting": "cattle [1]; 5 g/ton in feed, Day 0-91", "result": 14, "unit": "%"}, {"measurement": "Reduction, as compared to control, g of NH3 gas/animal", "setting": "cattle [1]; 20 g/ton in feed, Day 0-7", "result": 21, "unit": "%"}, {"measurement": "Reduction, as compared to control, g of NH3 gas/lb of live BW", "setting": "cattle [1]; 20 g/ton in feed, Day 0-7", "result": 22, "unit": "%"}, {"measurement": "Reduction, as compared to control, g of NH3 gas/animal", "setting": "cattle [1]; 20 g/ton in feed, Day 0-14", "result": "27% (27%)"}, {"measurement": "Reduction, as compared to control, g of NH3 gas/lb of live BW", "setting": "cattle [1]; 20 g/ton in feed, Day 0-14", "result": "27% (27%)"}, {"measurement": "Reduction, as compared to control, g of NH3 gas/animal", "setting": "cattle [1]; 20 g/ton in feed, Day 0-28", "result": 25, "unit": "%"}, {"measurement": "Reduction, as compared to control, g of NH3 gas/lb of live BW", "setting": "cattle [1]; 20 g/ton in feed, Day 0-28", "result": 26, "unit": "%"}, {"measurement": "Reduction, as compared to control, g of NH3 gas/animal", "setting": "cattle [1]; 20 g/ton in feed, Day 0-56", "result": "19% (19%)"}, {"measurement": "Reduction, as compared to control, g of NH3 gas/lb of live BW", "setting": "cattle [1]; 20 g/ton in feed, Day 0-56", "result": "19% (19%)"}, {"measurement": "Reduction, as compared to control, g of NH3 gas/animal", "setting": "cattle [1]; 20 g/ton in feed, Day 0-91", "result": 13, "unit": "%"}, {"measurement": "Reduction, as compared to control, g of NH3 gas/lb of HCW", "setting": "cattle [1]; 20 g/ton in feed, Day 0-91", "result": 17, "unit": "%"}, {"measurement": "Reduction, as compared to control, g of NH3 gas/lb of live BW", "setting": "cattle [1]; 20 g/ton in feed, Day 0-91", "result": 15, "unit": "%"}, {"measurement": "Reduction, as compared to control, g of CO2 gas/animal", "setting": "cattle [2]; 1.25 g/ton in feed, Day 0-7", "result": "(0.2%)"}, {"measurement": "Reduction, as compared to control, g of CO2 gas/lb of live BW", "setting": "cattle [2]; 1.25 g/ton in feed, Day 0-7", "result": 0, "unit": "%"}, {"measurement": "Reduction, as compared to control, g of CO2 gas/animal", "setting": "cattle [2]; 1.25 g/ton in feed, Day 0-14", "result": "(3%)"}, {"measurement": "Reduction, as compared to control, g of CO2 gas/lb of HCW", "setting": "cattle [2]; 1.25 g/ton in feed, Day 0-14", "result": 4, "unit": "%"}, {"measurement": "Reduction, as compared to control, g of CO2 gas/lb of live BW", "setting": "cattle [2]; 1.25 g/ton in feed, Day 0-14", "result": 2, "unit": "%"}, {"measurement": "Reduction, as compared to control, g of CO2 gas/animal", "setting": "cattle [2]; 1.25 g/ton in feed, Day 7-14", "result": "(5%)"}, {"measurement": "Reduction, as compared to control, g of CO2 gas/lb of HCW", "setting": "cattle [2]; 1.25 g/ton in feed, Day 7-14", "result": 6, "unit": "%"}, {"measurement": "Reduction, as compared to control, g of CO2 gas/lb of live BW", "setting": "cattle [2]; 1.25 g/ton in feed, Day 7-14", "result": 5, "unit": "%"}, {"measurement": "Reduction, as compared to control, g of CO2 gas/animal", "setting": "cattle [2]; 5 g/ton in feed, Day 0-7", "result": "(4%)"}, {"measurement": "Reduction, as compared to control, g of CO2 gas/lb of live BW", "setting": "cattle [2]; 5 g/ton in feed, Day 0-7", "result": 3, "unit": "%"}, {"measurement": "Reduction, as compared to control, g of CO2 gas/animal", "setting": "cattle [2]; 5 g/ton in feed, Day 0-14", "result": "(7%)"}, {"measurement": "Reduction, as compared to control, g of CO2 gas/lb of HCW", "setting": "cattle [2]; 5 g/ton in feed, Day 0-14", "result": 7, "unit": "%"}, {"measurement": "Reduction, as compared to control, g of CO2 gas/lb of live BW", "setting": "cattle [2]; 5 g/ton in feed, Day 0-14", "result": 6, "unit": "%"}, {"measurement": "Reduction, as compared to control, g of CO2 gas/animal", "setting": "cattle [2]; 5 g/ton in feed, Day 7-14", "result": "(10%)"}, {"measurement": "Reduction, as compared to control, g of CO2 gas/lb of HCW", "setting": "cattle [2]; 5 g/ton in feed, Day 7-14", "result": 10, "unit": "%"}, {"measurement": "Reduction, as compared to control, g of CO2 gas/lb of live BW", "setting": "cattle [2]; 5 g/ton in feed, Day 7-14", "result": 9, "unit": "%"}, {"measurement": "Reduction, as compared to control, g of CO2 gas/animal", "setting": "cattle [2]; 20 g/ton in feed, Day 0-7", "result": "(4%)"}, {"measurement": "Reduction, as compared to control, g of CO2 gas/lb of live BW", "setting": "cattle [2]; 20 g/ton in feed, Day 0-7", "result": 4, "unit": "%"}, {"measurement": "Reduction, as compared to control, g of CO2 gas/animal", "setting": "cattle [2]; 20 g/ton in feed, Day 0-14", "result": "(7%)"}, {"measurement": "Reduction, as compared to control, g of CO2 gas/lb of HCW", "setting": "cattle [2]; 20 g/ton in feed, Day 0-14", "result": 7, "unit": "%"}, {"measurement": "Reduction, as compared to control, g of CO2 gas/lb of live BW", "setting": "cattle [2]; 20 g/ton in feed, Day 0-14", "result": 6, "unit": "%"}, {"measurement": "Reduction, as compared to control, g of CO2 gas/animal", "setting": "cattle [2]; 20 g/ton in feed, Day 7-14", "result": "(9%)"}, {"measurement": "Reduction, as compared to control, g of CO2 gas/lb of HCW", "setting": "cattle [2]; 20 g/ton in feed, Day 7-14", "result": 10, "unit": "%"}, {"measurement": "Reduction, as compared to control, g of CO2 gas/lb of live BW", "setting": "cattle [2]; 20 g/ton in feed, Day 7-14", "result": 9, "unit": "%"}]}]}
